Experimental data reported in the NIST ThermoML archive (doi:10.1016/j.fluid.2004.10.028).

Assay: wn = mass fraction of the nth substance listed
Conditions: Liquid, Capillary tube (Ostwald / Ubbelohde) method

O=S(=O)([O-])[O-].[Na+].[Na+] [sodium sulfate] + O
viscosity [mPa·s]
Conditions | 100 kPa | 10000 kPa | 20000 kPa | 30000 kPa | 40000 kPa
298.15 K, w1 = 0.015 | 0.933 | 0.9335 | 0.9365 | 0.9399 | 0.942
298.15 K, w1 = 0.03 | 0.9746 | 0.9759 | 0.9769 | 0.9799 | 0.9812
298.15 K, w1 = 0.05 | 1.035 | 1.04 | 1.041 | 1.042 | 1.044
298.15 K, w1 = 0.07 | 1.119 | 1.119 | 1.119 | 1.121 | 1.122
298.15 K, w1 = 0.1 | 1.252 | 1.255 | 1.256 | 1.257 | 1.258
298.15 K, w1 = 0.15 | 1.545 | 1.548 | 1.55 | 1.551 | 1.554
298.15 K, w1 = 0.2 | 1.963 | 1.965 | 1.966 | 1.967 | 1.968
303.15 K, w1 = 0.23 | 1.993 | 1.993 | 1.996 | 1.999 | 2.002
303.15 K, w1 = 0.26 | 2.243 | 2.245 | 2.249 | 2.253 | 2.259
323.05 K, w1 = 0.1 | 0.7656 | 0.767 | 0.771 | 0.7745 | 0.778
323.15 K, w1 = 0.03 | 0.5972 | 0.5991 | 0.6012 | 0.6054 | 0.609
323.15 K, w1 = 0.2 | 1.168 | 1.17 | 1.176 | 1.181 | 1.185
323.15 K, w1 = 0.23 | 1.333 | 1.336 | 1.34 | 1.346 | 1.353
323.15 K, w1 = 0.26 | 1.504 | 1.505 | 1.509 | 1.515 | 1.523
323.25 K, w1 = 0.07 | 0.6825 | 0.6846 | 0.6875 | 0.6902 | 0.6935
323.4 K, w1 = 0.15 | 0.9286 | 0.9316 | 0.9354 | 0.9401 | 0.945
323.7 K, w1 = 0.015 | 0.5669 | 0.5741 | 0.5795 | 0.5821 | 0.5835
323.8 K, w1 = 0.05 | 0.6285 | 0.632 | 0.633 | 0.636 | 0.6385
347.2 K, w1 = 0.05 | 0.4434 | 0.4465 | 0.4496 | 0.453 | 0.4587
347.6 K, w1 = 0.07 | 0.4733 | 0.4764 | 0.4795 | 0.4824 | 0.4875
347.9 K, w1 = 0.2 | 0.7892 | 0.7944 | 0.8004 | 0.8053 | 0.811
348.15 K, w1 = 0.015 | 0.395 | 0.3977 | 0.4006 | 0.4038 | 0.4087
348.35 K, w1 = 0.03 | 0.4107 | 0.4134 | 0.4169 | 0.42 | 0.4225
348.42 K, w1 = 0.1 | 0.5232 | 0.5267 | 0.5294 | 0.534 | 0.5399
348.6 K, w1 = 0.26 | 1.01 | 1.017 | 1.023 | 1.029 | 1.041
348.7 K, w1 = 0.15 | 0.6292 | 0.6336 | 0.6367 | 0.6418 | 0.6473
348.7 K, w1 = 0.23 | 0.8925 | 0.8987 | 0.9053 | 0.9128 | 0.92
370.4 K, w1 = 0.23 | – | 0.6799 | 0.6864 | 0.6905 | 0.6997
371.95 K, w1 = 0.05 | – | 0.3317 | 0.335 | 0.3389 | 0.343
372.4 K, w1 = 0.1 | – | 0.3948 | 0.3979 | 0.3998 | 0.4062
372.8 K, w1 = 0.15 | – | 0.4705 | 0.4743 | 0.4795 | 0.484
372.9 K, w1 = 0.03 | – | 0.3096 | 0.3124 | 0.3164 | 0.3186
373.8 K, w1 = 0.015 | – | 0.2947 | 0.2994 | 0.3034 | 0.3065
373.9 K, w1 = 0.07 | – | 0.3482 | 0.3508 | 0.3546 | 0.359
374.5 K, w1 = 0.2 | – | 0.5699 | 0.5743 | 0.5799 | 0.5875
375.2 K, w1 = 0.26 | – | 0.7321 | 0.7395 | 0.7436 | 0.7535
395.4 K, w1 = 0.15 | – | 0.3731 | 0.3767 | 0.381 | 0.386
395.62 K, w1 = 0.05 | – | 0.2626 | 0.2668 | 0.2695 | 0.2716
397.1 K, w1 = 0.07 | – | 0.2772 | 0.2799 | 0.2834 | 0.287
397.21 K, w1 = 0.2 | – | 0.4505 | 0.454 | 0.4598 | 0.4654
398.4 K, w1 = 0.03 | – | 0.2422 | 0.2468 | 0.2494 | 0.251
398.72 K, w1 = 0.1 | – | 0.3052 | 0.3094 | 0.3132 | 0.3159
398.8 K, w1 = 0.23 | – | 0.5081 | 0.5124 | 0.5185 | 0.5253
399.01 K, w1 = 0.015 | – | 0.2321 | 0.2367 | 0.2398 | 0.2412
399.4 K, w1 = 0.26 | – | 0.5695 | 0.5739 | 0.58 | 0.5895
420.3 K, w1 = 0.2 | – | 0.3686 | 0.3729 | 0.3775 | 0.3826
421.3 K, w1 = 0.15 | – | 0.2998 | 0.3027 | 0.3087 | 0.3114
421.4 K, w1 = 0.1 | – | 0.2535 | 0.2565 | 0.2596 | 0.2635
421.5 K, w1 = 0.03 | – | 0.2013 | 0.2035 | 0.2068 | 0.209
422.51 K, w1 = 0.23 | – | 0.4132 | 0.4195 | 0.4254 | 0.43
422.61 K, w1 = 0.015 | – | 0.1927 | 0.1968 | 0.1999 | 0.2022
423.8 K, w1 = 0.26 | – | 0.4623 | 0.4688 | 0.4726 | 0.4803
424.67 K, w1 = 0.05 | – | 0.2079 | 0.2096 | 0.213 | 0.2164
425.6 K, w1 = 0.07 | – | 0.2211 | 0.2267 | 0.2293 | 0.23
444.81 K, w1 = 0.2 | – | 0.3083 | 0.3129 | 0.3175 | 0.3219
446.24 K, w1 = 0.05 | – | 0.1796 | 0.182 | 0.1853 | 0.1879
447 K, w1 = 0.07 | – | 0.1913 | 0.1946 | 0.1975 | 0.1998
447.2 K, w1 = 0.1 | – | 0.2125 | 0.2163 | 0.2189 | 0.2219
447.6 K, w1 = 0.015 | – | 0.1633 | 0.1684 | 0.17 | 0.1724
447.6 K, w1 = 0.15 | – | 0.2493 | 0.2551 | 0.2575 | 0.2603
447.6 K, w1 = 0.26 | – | 0.3901 | 0.3981 | 0.401 | 0.4047
447.81 K, w1 = 0.03 | – | 0.1686 | 0.1705 | 0.1734 | 0.1761
447.9 K, w1 = 0.23 | – | 0.3449 | 0.3498 | 0.3568 | 0.3609
470.16 K, w1 = 0.05 | – | 0.1564 | 0.1598 | 0.1629 | 0.1647
470.7 K, w1 = 0.015 | – | 0.1432 | 0.1468 | 0.1499 | 0.1508
471.31 K, w1 = 0.1 | – | 0.1847 | 0.1878 | 0.1904 | 0.1941
472 K, w1 = 0.23 | – | 0.2966 | 0.3024 | 0.3086 | 0.312
472.2 K, w1 = 0.07 | – | 0.1656 | 0.1689 | 0.1706 | 0.1739
472.3 K, w1 = 0.2 | – | 0.2608 | 0.2661 | 0.2699 | 0.2739
473.7 K, w1 = 0.03 | – | 0.1456 | 0.1486 | 0.1514 | 0.153
473.9 K, w1 = 0.26 | – | 0.3308 | 0.3354 | 0.3413 | 0.3476
473.93 K, w1 = 0.15 | – | 0.2133 | 0.2169 | 0.2199 | 0.224
496.34 K, w1 = 0.23 | – | 0.262 | 0.2695 | 0.2734 | 0.2776
497.1 K, w1 = 0.03 | – | 0.1296 | 0.1312 | 0.136 | 0.1375
497.19 K, w1 = 0.2 | – | 0.2292 | 0.2335 | 0.2387 | 0.2425
497.8 K, w1 = 0.15 | – | 0.1892 | 0.1945 | 0.1978 | 0.2001
498.22 K, w1 = 0.1 | – | 0.1618 | 0.1641 | 0.1678 | 0.1711
498.3 K, w1 = 0.015 | – | 0.1248 | 0.1286 | 0.1307 | 0.1325
498.7 K, w1 = 0.07 | – | 0.1451 | 0.1489 | 0.1506 | 0.1533
498.7 K, w1 = 0.26 | – | 0.2923 | 0.2976 | 0.3018 | 0.309
499.3 K, w1 = 0.05 | – | 0.1352 | 0.1363 | 0.1392 | 0.143
520.5 K, w1 = 0.26 | – | 0.2636 | 0.2691 | 0.2746 | 0.2813
520.51 K, w1 = 0.23 | – | 0.2338 | 0.2387 | 0.2415 | 0.249
520.64 K, w1 = 0.015 | – | 0.1128 | 0.1165 | 0.1191 | 0.1209
522.4 K, w1 = 0.15 | – | 0.1686 | 0.1709 | 0.1748 | 0.179
523.1 K, w1 = 0.07 | – | 0.1298 | 0.1324 | 0.1367 | 0.1385
523.3 K, w1 = 0.03 | – | 0.115 | 0.1169 | 0.1196 | 0.1219
523.8 K, w1 = 0.2 | – | 0.2021 | 0.2076 | 0.2105 | 0.216
524.7 K, w1 = 0.05 | – | 0.1204 | 0.1231 | 0.1267 | 0.1286
525.4 K, w1 = 0.1 | – | 0.143 | 0.1469 | 0.1493 | 0.1524
545.3 K, w1 = 0.05 | – | 0.1097 | 0.112 | 0.1143 | 0.1177
545.4 K, w1 = 0.2 | – | 0.184 | 0.1879 | 0.1923 | 0.1989
546.2 K, w1 = 0.07 | – | 0.1171 | 0.1197 | 0.1224 | 0.1267
547.7 K, w1 = 0.15 | – | 0.151 | 0.1548 | 0.1589 | 0.1634
547.9 K, w1 = 0.015 | – | 0.1 | 0.1025 | 0.1068 | 0.1089
547.9 K, w1 = 0.1 | – | 0.1296 | 0.1329 | 0.136 | 0.1399
548.7 K, w1 = 0.23 | – | 0.2061 | 0.2106 | 0.2186 | 0.223
549.9 K, w1 = 0.03 | – | 0.1023 | 0.1065 | 0.1086 | 0.1109
570.5 K, w1 = 0.15 | – | 0.1354 | 0.1399 | 0.1463 | 0.1496
572.62 K, w1 = 0.03 | – | 0.092 | 0.0967 | 0.0992 | 0.102
572.96 K, w1 = 0.05 | – | 0.0965 | 0.0998 | 0.1029 | 0.1066
573.2 K, w1 = 0.1 | – | 0.1143 | 0.1178 | 0.1204 | 0.1266
573.5 K, w1 = 0.07 | – | 0.1031 | 0.1068 | 0.1092 | 0.1143
